# US8865734B2 (priority 2010, dated 2014)
# Tested on: in vitro grown Mycobacteria (M. tuberculosis)
# Assay: QUM: Quantification of in vitro grown Mycobacteria (in vitro growth fluorescence assay)
# Format: cell-based
# Settings: Mycobacterium tuberculosis; MIC, 80% bacterial growth inhibition; in vitro growth; read-out: QUM
# From the text: A 120,000 small molecule compound library was screened using a validated phenotypic cell-based assay (WO2010003533A2). Active compounds from the primary screen were confirmed via dose response in the intracellular (QIM) assay and an in vitro (QUM) assay, wherein the abbreviation “QIM” stands for Quantification of Intracellular Mycobacteria and the abbreviation “QUM” stands for Quantification of in vitro grown Mycobacteria. […] The MIC is the minimum concentration of compound required to obtain 80% bacterial growth inhibition.
# The imidazopyridine compounds (scaffolds Ia and Ib; see Table 1) underwent derivatization according to the methods outlined below (Schemes 1-13). Resulting derivatives were examined for inhibitory activity (MIC) using the assays described above (Example 1) and the results are summarized in Table 1.
row,Compound,MIC [µM]
1,"CCc1nc2cc(Cl)ccn2c1C(=O)NCc1ccc(N2CCC(COC3CCCC3)CC2)cc1 [Compound 169, 7-Chloro-N-(4-(4-(cyclopentyloxymethyl)piperidin-1-yl)benzyl)-2-ethylimidazo[1,2-a]pyridine-3-carboxamide]",< 1
2,"CCc1nc2c(F)cccn2c1C(=O)NCc1ccc(OC(F)(F)F)cc1 [Compound 251, 2-Ethyl-8-fluoro-N-(4-(trifluoromethoxy)benzyl)imidazo[1,2-a]pyridine-3-carboxamide]",< 1
3,"CCc1nc2ccc(Cl)cn2c1C(=O)NCc1ccc(N2CCC(C=O)CC2)cc1 [Compound 351, 6-Chloro-2-ethyl-N-(4-(4-formylpiperidin-1-yl)benzyl)imidazo[1,2-a]pyridine-3-carboxamide]",< 1
4,CCc1nc2cc(Cl)ccn2c1C(=O)OCc1ccc(Oc2ccc(F)cc2)cc1 [Compound 264],< 1
5,"CCc1nc2ccc(Cl)cn2c1C(=O)NCc1ccc(N2CCC(OCc3ccc(F)cc3)CC2)cc1 [Compound 347, 6-Chloro-2-ethyl-N-(4-(4-(4-fluorobenzyloxy)piperidin-1-yl)benzyl)imidazo[1,2-a]pyridine-3-carboxamide]",< 1
6,"CCc1nc2cc(OC)ccn2c1C(=O)NCc1ccc(N2CCOCC2)cc1 [Compound 314, 2-Ethyl-7-methoxy-N-(4-morpholinobenzyl)imidazo[1,2-a]pyridine-3-carboxamide]",< 1
7,"CCc1nc2ccc(C)cn2c1C(=O)NCc1ccc(N2CCOCC2)cc1 [Compound 219, 2-ethyl-6-methyl-N-(4-morpholinobenzyl)imidazo[1,2-a]pyridine-3-carboxamide]",< 1
8,"CCc1nc2cc(Cl)ccn2c1C(=O)NCc1ccc(N2CC3CC=CCC3C2)cc1 (stereo not shown) [Compound 223, 7-Chloro-N-(4-(3a,4-dihydro-1H-isoindol-2(3H,7H,7aH)-yl)benzyl)-2-ethylimidazo[1,2-a]pyridine-3-carboxamide]",< 1
9,"CCc1nc2ccccn2c1C(=O)NCc1ccc(N2CCC(c3ccc(F)cc3)CC2)cc1 [Compound 285, 2-Ethyl-N-(4-(4-(4-fluorophenyl)piperidin-1-yl)benzyl)imidazo[1,2-a]pyridine-3-carboxamide]",< 1
10,"CCc1nc2c(Br)cccn2c1C(=O)NCc1ccc(N2CCN(c3ccc(F)cc3)CC2)cc1 [Compound 305, 8-Bromo-2-ethyl-N-(4-(4-(4-fluorophenyl)piperazin-1-yl)benzyl)imidazo[1,2-a]pyridine-3-carboxamide]",< 1
11,"CCc1nc2cc(Cl)ccn2c1C(=O)NCc1ccc(N2CCC(OCc3ccc(F)cc3)CC2)cc1 [Compound 348, 7-Chloro-2-ethyl-N-(4-(4-(4-fluorobenzyloxy)piperidin-1-yl)benzyl)imidazo[1,2-a]pyridine-3-carboxamide]",1 to 20
12,"CCc1nc2ccc(Cl)cn2c1C(=O)NCc1ccc(N2CCC(C(=O)O)CC2)cc1 [Compound 220, 1-(4-((6-Chloro-2-ethylimidazo[1,2-a]pyridine-3-carboxamido)methyl)phenyl)piperidine-4-carboxylic acid]",< 1
13,"CCc1nc2ccc(Cl)cn2c1C(=O)NCc1ccc(N2CCC(C(=O)N(C)C)CC2)cc1 [Compound 345, 6-Chloro-N-(4-(4-(dimethylcarbamoyl)piperidin-1-yl)benzyl)-2-ethylimidazo[1,2-a]pyridine-3-carboxamide]",< 1
14,"CCOC(=O)C1CCN(c2ccc(CNC(=O)c3c(CC)nc4cc(Cl)ccn34)cc2)CC1 [Compound 301, Ethyl 1-(4-((7-chloro-2-ethylimidazo[1,2-a]pyridine-3-carboxamido)methyl)phenyl)piperidine-4-carboxylate]",< 1
15,"CCOC(=O)C1CCN(c2ccc(CNC(=O)c3c(CC)nc4ccc(Cl)cn34)cc2)CC1 [Compound 300, Ethyl 1-(4-((6-chloro-2-ethylimidazo[1,2-a]pyridine-3-carboxamido)methyl)phenyl)piperidine-4-carboxylate]",< 1
16,"CCc1nc2cc(Cl)ccn2c1C(=O)NCc1ccc(-c2ccc(C=O)cc2)cc1 [Compound 252, 7-Chloro-2-ethyl-N-((4′-formylbiphenyl-4-yl)methyl)imidazo[1,2-a]pyridine-3-carboxamide]",< 1
17,"CCc1nc2cc(Cl)ccn2c1C(=O)NCc1ccc(N2CCC(C(=O)O)CC2)cc1 [Compound 302, 1-(4-((7-Chloro-2-ethylimidazo[1,2-a]pyridine-3-carboxamido)methyl)phenyl)piperidine-4-carboxylic acid]",< 1
18,"CCc1nc2ccc(Cl)cn2c1C(=O)NCc1ccc2oc(-c3ccc(F)cc3)nc2c1 [Compound 335, 6-Chloro-2-ethyl-N-((2-(4-fluorophenyl)benzo[d]oxazol-5-yl)methyl)imidazo[1,2-a]pyridine-3-carboxamide]",< 1
19,"CCc1nc2cc(Cl)ccn2c1C(=O)NCc1ccc(N2CCC(C=O)CC2)cc1 [Compound 352, 7-Chloro-2-ethyl-N-(4-(4-formylpiperidin-1-yl)benzyl)imidazo[1,2-a]pyridine-3-carboxamide]",< 1
20,"CCc1nc2cc(Cl)ccn2c1C(=O)NCc1ccc(-n2cc3c(c2)CCCC3)cc1 [Compound 225, 7-Chloro-2-ethyl-N-(4-(4,5,6,7-tetrahydro-2H-isoindol-2-yl)benzyl)imidazo[1,2-a]pyridine-3-carboxamide]",< 1
21,"CCc1nc2c(OC)cccn2c1C(=O)NCc1ccc(N2CCOCC2)cc1 [Compound 318, 2-Ethyl-8-methoxy-N-(4-morpholinobenzyl)imidazo[1,2-a]pyridine-3-carboxamide]",< 1
22,"CCc1nc2cc(Cl)ccn2c1C(=O)NCc1ccc2oc(-c3ccc(F)cc3)nc2c1 [Compound 336, 7-Chloro-2-ethyl-N-((2-(4-fluorophenyl)benzo[d]oxazol-5-yl)methyl)imidazo[1,2-a]pyridine-3-carboxamide]",< 1
23,"CCc1nc2cc(Br)ccn2c1C(=O)NCc1ccc(OC(F)(F)F)cc1 [Compound 250, 7-Bromo-2-ethyl-N-(4-(trifluoromethoxy)benzyl)imidazo[1,2-a]pyridine-3-carboxamide]",< 1
24,"CCc1nc2ccc(Cl)cn2c1C(=O)NCc1ccc(N2CCC(c3ccc(Cl)cc3)CC2)cc1 [Compound 337, 6-Chloro-N-(4-(4-(4-chlorophenyl)piperidin-1-yl)benzyl)-2-ethylimidazo[1,2-a]pyridine-3-carboxamide]",< 1
25,"CCc1nc2cc(C)ccn2c1C(=O)NCc1ccc(OC(F)(F)F)cc1 [Compound 249, 2-Ethyl-7-methyl-N-(4-(trifluoromethoxy)benzyl)imidazo[1,2-a]pyridine-3-carboxamide]",< 1
26,"CCc1nc2ccc(Cl)cn2c1C(=O)NCc1ccc(N2CCC(c3ccc(OC(F)(F)F)cc3)CC2)cc1 [Compound 289, 6-Chloro-2-ethyl-N-(4-(4-(4-(trifluoromethoxy)phenyl)piperidin-1-yl)benzyl)imidazo[1,2-a]pyridine-3-carboxamide]",< 1
27,"CCc1nc2c(Br)cccn2c1C(=O)NCc1ccc(N2CCOCC2)cc1 [Compound 320, 8-Bromo-2-ethyl-N-(4-morpholinobenzyl)imidazo[1,2-a]pyridine-3-carboxamide]",< 1
28,"CCc1nc2cc(Cl)ccn2c1C(=O)NCc1ccc(N2CCC(COC(F)F)CC2)cc1 [Compound 183, 7-Chloro-N-(4-(4-((difluoromethoxy)methyl)piperidin-1-yl)benzyl)-2-ethylimidazo[1,2-a]pyridine-3-carboxamide]",< 1
